Numbered stars: 1 amine (or outer) side, 2 acyl side, 3 side chain; on linkers, the order of the positions; unused ones are H or OH. Bridge positions count the residues as written; N and C are the ends. Square brackets hold non-standard residues; d marks the D form. Side chains are listed from the residue outwards. Peptide text beside a SMILES is read from it. * marks the point of attachment. C18 diacid = O=C(O)CCCCCCCCCCCCCCCCC(=O)*; γGlu = O=C(O)[C@H](CCC(=O)[*:2])N[*:1]; Aib = CC(C)(N)C(=O)O
Experiment: Thioflavin T fibrillation assay
Type: physicochemical
Details: 1 mg/mL in 25 mM sodium acetate buffer pH 4.0, 37° C., 6 days, orbital shaking; >144 h = no increase
How it was run: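 Peptides at 1 mg/mL in 25 mM sodium acetate pH 4.0 were mixed with ThT (0.25 mM stock) and held 6 days at 37 °C with intermittent orbital shaking at 500–750 rpm. Fluorescence (ex 444/em 480 nm) was read every 30 min, with buffer baseline correction and 5 replicates. Value: mean time to a detectable fluorescence increase.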

Row | Structure (SMILES) | Time taken to detect increase in fluorescence intensity
1 | CC[C@H](C)[C@H](NC(=O)[C@@H]1CCCN1C(=O)CNC(=O)[C@H](Cc1ccccc1)NC(=O)[C@H](CC(N)=O)NC(=O)C(C)(C)NC(=O)[C@H](CO)NC(=O)[C@H](CO)NC(=O)[C@H](Cc1c[nH]cn1)NC(=O)[C@H](CCCNC(=N)N)NC(=O)[C@H](CC(C)C)NC(=O)[C@H](Cc1ccccc1)NC(=O)[C@H](CC(N)=O)NC(=O)[C@H](C)NC(=O)[C@H](CC(C)C)NC(=O)[C@H](CCCNC(=N)N)NC(=O)[C@H](CCC(N)=O)NC(=O)[C@@H](NC(=O)[C@H](C)NC(=O)[C@@H]1CSSC[C@H](NC(=O)[C@@H](N)CCCCNC(=O)CC[C@H](NC(=O)CCCCCCCCCCCCCCCCC(=O)O)C(=O)O)C(=O)N[C@@H](CC(N)=O)C(=O)N[C@@H]([C@@H](C)O)C(=O)N[C@@H](C)C(=O)N[C@@H]([C@@H](C)O)C(=O)N1)[C@@H](C)O)C(=O)N[C@@H](CC(C)C)C(=O)N1CCC[C@H]1C(=O)N1CCC[C@H]1C(=O)N[C@H](C(=O)N[C@@H](CCC(=O)O)C(=O)N[C@H](C(=O)NCC(=O)N[C@@H](CO)C(=O)N[C@@H](CC(N)=O)C(=O)N[C@H](C(=O)N[C@@H](Cc1ccc(O)cc1)C(N)=O)[C@@H](C)O)C(C)C)[C@@H](C)O [Peptide 44, K(γE-C18diacid)[CNTATC]ATQRLANFLRHSS(Aib)NFGPILPPTEVGSNTY-amide] (H-K([γGlu-C18 diacid])CNTATCATQRLANFLRHSS[Aib]NFGPILPPTEVGSNTY-NH2; disulfide 2-7; N-terminus assumed) | >144 h
2 | CC[C@H](C)[C@H](NC(=O)[C@@H]1CCCN1C(=O)CNC(=O)[C@H](Cc1ccccc1)NC(=O)[C@H](CC(N)=O)NC(=O)C(C)(C)NC(=O)[C@H](CO)NC(=O)[C@H](CO)NC(=O)[C@H](Cc1c[nH]cn1)NC(=O)[C@H](CCCNC(=N)N)NC(=O)[C@H](CC(C)C)NC(=O)[C@H](Cc1ccccc1)NC(=O)[C@H](CC(N)=O)NC(=O)[C@H](C)NC(=O)[C@H](CC(C)C)NC(=O)[C@H](CCCNC(=N)N)NC(=O)[C@H](CCC(N)=O)NC(=O)[C@@H](NC(=O)[C@H](C)NC(=O)[C@@H]1CSSC[C@H](NC(=O)[C@@H](N)CCCCNC(=O)CC[C@H](NC(=O)CCCCCCCCCCCCCCCCC(=O)O)C(=O)O)C(=O)N[C@@H](CC(N)=O)C(=O)N[C@@H]([C@@H](C)O)C(=O)N[C@@H](C)C(=O)N[C@@H]([C@@H](C)O)C(=O)N1)[C@@H](C)O)C(=O)N[C@@H](CC(C)C)C(=O)N1CCC[C@H]1C(=O)N1CCC[C@H]1C(=O)N[C@H](C(=O)N[C@@H](CC(N)=O)C(=O)N[C@H](C(=O)NCC(=O)N[C@@H](CO)C(=O)N[C@@H](CC(N)=O)C(=O)N[C@H](C(=O)N[C@@H](Cc1ccc(O)cc1)C(N)=O)[C@@H](C)O)C(C)C)[C@@H](C)O [Peptide 48, K(γE-C18diacid)[CNTATC]ATQRLANFLRHSS(Aib)NFGPILPPTNVGSNTY-amide] (H-K([γGlu-C18 diacid])CNTATCATQRLANFLRHSS[Aib]NFGPILPPTNVGSNTY-NH2; disulfide 2-7; N-terminus assumed) | >144 h
3 | CC[C@H](C)[C@H](NC(=O)[C@@H]1CCCN1C(=O)CNC(=O)[C@H](Cc1ccccc1)NC(=O)[C@H](CC(N)=O)NC(=O)C(C)(C)NC(=O)[C@H](CO)NC(=O)[C@H](CO)NC(=O)[C@H](Cc1c[nH]cn1)NC(=O)[C@H](CCCNC(=N)N)NC(=O)[C@H](CC(C)C)NC(=O)[C@H](Cc1ccccc1)NC(=O)[C@H](CC(N)=O)NC(=O)[C@H](C)NC(=O)[C@H](CC(C)C)NC(=O)[C@H](CCCNC(=N)N)NC(=O)[C@H](CCC(N)=O)NC(=O)[C@@H](NC(=O)[C@H](C)NC(=O)[C@@H]1CSSC[C@H](NC(=O)[C@H](CCCCN)NC(=O)[C@@H](N)CCCCNC(=O)CC[C@H](NC(=O)CC[C@H](NC(=O)CCCCCCCCCCCCCCCCC(=O)O)C(=O)O)C(=O)O)C(=O)N[C@@H](CC(N)=O)C(=O)N[C@@H]([C@@H](C)O)C(=O)N[C@@H](C)C(=O)N[C@@H]([C@@H](C)O)C(=O)N1)[C@@H](C)O)C(=O)N[C@@H](CC(C)C)C(=O)N1CCC[C@H]1C(=O)N1CCC[C@H]1C(=O)N[C@H](C(=O)N[C@@H](CC(N)=O)C(=O)N[C@H](C(=O)NCC(=O)N[C@@H](CO)C(=O)N[C@@H](CC(N)=O)C(=O)N[C@H](C(=O)N[C@@H](Cc1ccc(O)cc1)C(N)=O)[C@@H](C)O)C(C)C)[C@@H](C)O [Peptide 66, K(γE-γE-C18diacid)K[CNTATC]ATQRLANFLRHSS(Aib)NFGPILPPTNVGSNTY-amide] (H-K([γGlu-γGlu-C18 diacid])KCNTATCATQRLANFLRHSS[Aib]NFGPILPPTNVGSNTY-NH2; disulfide 3-8; N-terminus assumed) | >144 h
4 | CC[C@H](C)[C@H](NC(=O)[C@@H]1CCCN1C(=O)CNC(=O)[C@H](Cc1ccccc1)NC(=O)[C@H](CC(N)=O)NC(=O)C(C)(C)NC(=O)[C@H](CO)NC(=O)[C@H](CO)NC(=O)[C@H](Cc1c[nH]cn1)NC(=O)[C@@H](NC(=O)[C@H](CC(C)C)NC(=O)[C@H](Cc1ccccc1)NC(=O)[C@H](CC(N)=O)NC(=O)[C@H](C)NC(=O)[C@H](CC(C)C)NC(=O)[C@H](CCCNC(=N)N)NC(=O)[C@H](CCC(N)=O)NC(=O)[C@@H](NC(=O)[C@H](C)NC(=O)[C@@H]1CSSC[C@H](NC(=O)[C@H](CCCCN)NC(=O)[C@@H](N)CCCCNC(=O)CC[C@H](NC(=O)CC[C@H](NC(=O)CCCCCCCCCCCCCCCCC(=O)O)C(=O)O)C(=O)O)C(=O)N[C@@H](CC(N)=O)C(=O)N[C@@H]([C@@H](C)O)C(=O)N[C@@H](C)C(=O)N[C@@H]([C@@H](C)O)C(=O)N1)[C@@H](C)O)C(C)C)C(=O)N[C@@H](CC(C)C)C(=O)N1CCC[C@H]1C(=O)N1CCC[C@H]1C(=O)N[C@H](C(=O)N[C@@H](CCCNC(=N)N)C(=O)N[C@H](C(=O)NCC(=O)N[C@@H](CO)C(=O)N[C@@H](CC(N)=O)C(=O)N[C@H](C(=O)N[C@@H](Cc1ccc(O)cc1)C(N)=O)[C@@H](C)O)C(C)C)[C@@H](C)O [Peptide 70, K(γE-γE-C18diacid)K[CNTATC]ATQRLANFLVHSS(Aib)NFGPILPPTRVGSNTY-amide] (H-K([γGlu-γGlu-C18 diacid])KCNTATCATQRLANFLVHSS[Aib]NFGPILPPTRVGSNTY-NH2; disulfide 3-8; N-terminus assumed) | >144 h
5 | CC[C@H](C)[C@H](NC(=O)[C@@H]1CCCN1C(=O)CNC(=O)[C@H](Cc1ccccc1)NC(=O)[C@H](CC(N)=O)NC(=O)C(C)(C)NC(=O)[C@H](CO)NC(=O)[C@H](CO)NC(=O)[C@H](Cc1c[nH]cn1)NC(=O)[C@@H](NC(=O)[C@H](CC(C)C)NC(=O)[C@H](Cc1ccccc1)NC(=O)[C@H](CC(N)=O)NC(=O)[C@H](C)NC(=O)[C@H](CC(C)C)NC(=O)[C@H](CCCNC(=N)N)NC(=O)[C@H](CCC(N)=O)NC(=O)[C@@H](NC(=O)[C@H](C)NC(=O)[C@@H]1CSSC[C@H](NC(=O)[C@H](CCCCN)NC(=O)[C@@H](N)CCCCNC(=O)CC[C@H](NC(=O)CCCCCCCCCCCCCCCCC(=O)O)C(=O)O)C(=O)N[C@@H](CC(N)=O)C(=O)N[C@@H]([C@@H](C)O)C(=O)N[C@@H](C)C(=O)N[C@@H]([C@@H](C)O)C(=O)N1)[C@@H](C)O)C(C)C)C(=O)N[C@@H](CC(C)C)C(=O)N1CCC[C@H]1C(=O)N1CCC[C@H]1C(=O)N[C@H](C(=O)NC(C)(C)C(=O)N[C@H](C(=O)NCC(=O)N[C@@H](CO)C(=O)N[C@@H](CC(N)=O)C(=O)N[C@H](C(=O)N[C@@H](Cc1ccc(O)cc1)C(N)=O)[C@@H](C)O)C(C)C)[C@@H](C)O [Peptide 80, K(γE-C18diacid)K[CNTATC]ATQRLANFLVHSS(Aib)NFGPILPPT(Aib)VGSNTY-amide] (H-K([γGlu-C18 diacid])KCNTATCATQRLANFLVHSS[Aib]NFGPILPPT[Aib]VGSNTY-NH2; disulfide 3-8; N-terminus assumed) | >144 h
6 | CC[C@H](C)[C@H](NC(=O)[C@@H]1CCCN1C(=O)CNC(=O)[C@H](Cc1ccccc1)NC(=O)[C@H](CC(N)=O)NC(=O)[C@H](CC(N)=O)NC(=O)[C@H](CO)NC(=O)[C@H](CO)NC(=O)[C@H](Cc1c[nH]cn1)NC(=O)[C@@H](NC(=O)[C@H](CC(C)C)NC(=O)[C@H](Cc1ccccc1)NC(=O)[C@H](CC(N)=O)NC(=O)[C@H](C)NC(=O)[C@H](CC(C)C)NC(=O)[C@H](CCCNC(=N)N)NC(=O)[C@H](CCC(N)=O)NC(=O)[C@@H](NC(=O)[C@H](C)NC(=O)[C@@H]1CSSC[C@H](NC(=O)[C@@H](N)CCCCNC(=O)CC[C@H](NC(=O)CCCCCCCCCCCCCCCCC(=O)O)C(=O)O)C(=O)N[C@@H](CC(N)=O)C(=O)N[C@@H]([C@@H](C)O)C(=O)N[C@@H](C)C(=O)N[C@@H]([C@@H](C)O)C(=O)N1)[C@@H](C)O)C(C)C)C(=O)N[C@H](CC(C)C)C(=O)N1CCC[C@H]1C(=O)N1CCC[C@H]1C(=O)N[C@H](C(=O)N[C@@H](CC(N)=O)C(=O)N[C@H](C(=O)NCC(=O)N[C@@H](CO)C(=O)N[C@@H](CC(N)=O)C(=O)N[C@H](C(=O)N[C@@H](Cc1ccc(O)cc1)C(N)=O)[C@@H](C)O)C(C)C)[C@@H](C)O [Peptide 103, K(γE-C18diacid)[CNTATC]ATQRLANFLVHSSNNFGPI(dL)PPTNVGSNTY-amide] (H-K([γGlu-C18 diacid])CNTATCATQRLANFLVHSSNNFGPI[dL]PPTNVGSNTY-NH2; disulfide 2-7; N-terminus assumed) | <5 h

Reference: patent publication US12371464B2, “Polypeptides and uses thereof” (MEDIMMUNE LIMITED, priority 2020, dated 2025)
